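Test compounds were applied to cells in 96-well plates for 48 hours at 5 doses. GI50: concentration for 50% inhibition of growth.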 The source made the active and inactive calls. Rule as the data show it: active = GI50 up to about 1.1 µM and inactive = higher.
Tests used:
Assay in all cases: inhibition of tumour cell growth, NCI panel, 48 h
ACHN = tested on: ACHN
SN12C = tested on: SN12C
HOP-92 = tested on: HOP-92
Malme-3M = tested on: Malme-3M
NCI/ADR-RES = tested on: NCI/ADR-RES
DU-145 = tested on: DU-145
UACC-62 = tested on: UACC-62
MDA-MB-231 = tested on: MDA-MB-231
NCI-H522 = tested on: NCI-H522
TK-10 = tested on: TK-10
KM12 = tested on: KM12
OVCAR-3 = tested on: OVCAR-3
HL-60 = tested on: HL-60
NCI-H226 = tested on: NCI-H226
SF-295 = tested on: SF-295
COLO 205 = tested on: COLO 205
MOLT-4 = tested on: MOLT-4
SK-MEL-5 = tested on: SK-MEL-5
EKVX = tested on: EKVX

Structure (SMILES)	GI50 (ACHN)	GI50 (SN12C)	GI50 (HOP-92)	GI50 (Malme-3M)	GI50 (NCI/ADR-RES)	GI50 (DU-145)	GI50 (UACC-62)	GI50 (MDA-MB-231)	GI50 (NCI-H522)	GI50 (TK-10)	GI50 (KM12)	GI50 (OVCAR-3)	GI50 (HL-60)	GI50 (NCI-H226)	GI50 (SF-295)	GI50 (COLO 205)	GI50 (MOLT-4)	GI50 (SK-MEL-5)	GI50 (EKVX)
O=[N+]([O-])c1ccc2ncccc2c1CCc1c([N+](=O)[O-])ccc2ncccc12	> 100 µM (inactive)	> 100 µM (inactive)	> 35.3 µM (inactive)	> 100 µM (inactive)	> 100 µM (inactive)	> 100 µM (inactive)	> 100 µM (inactive)	> 100 µM (inactive)	> 100 µM (inactive)	> 100 µM (inactive)	> 100 µM (inactive)	> 100 µM (inactive)	> 100 µM (inactive)	> 100 µM (inactive)	> 100 µM (inactive)	> 100 µM (inactive)	> 100 µM (inactive)	> 100 µM (inactive)	> 100 µM (inactive)
O=C(O)/C(=C\c1ccccc1)Cc1ccccc1	> 100 µM (inactive)	> 100 µM (inactive)	> 100 µM (inactive)	> 100 µM (inactive)	> 100 µM (inactive)	> 100 µM (inactive)	> 100 µM (inactive)	> 100 µM (inactive)	> 100 µM (inactive)	> 100 µM (inactive)	> 100 µM (inactive)	> 100 µM (inactive)	> 100 µM (inactive)	> 100 µM (inactive)	> 100 µM (inactive)	> 100 µM (inactive)	> 100 µM (inactive)	> 100 µM (inactive)	> 100 µM (inactive)
CC(C)c1ccc(/C(C(=O)O)=C(\O)C(=O)O)cc1	> 100 µM (inactive)	> 100 µM (inactive)	> 100 µM (inactive)	> 100 µM (inactive)	> 100 µM (inactive)	> 100 µM (inactive)	> 100 µM (inactive)	> 100 µM (inactive)	> 100 µM (inactive)	> 100 µM (inactive)	> 100 µM (inactive)	> 100 µM (inactive)	> 100 µM (inactive)	> 100 µM (inactive)	> 100 µM (inactive)	> 100 µM (inactive)	> 100 µM (inactive)	> 100 µM (inactive)	> 100 µM (inactive)
COc1cc2c(c(OC)c1OC)-c1ccc(SC)c(=O)cc1C(NC(=O)c1ccccc1)CC2 (stereo not given)	< 0.01 µM (active)	< 0.01 µM (active)	0.0119 µM (active)	< 0.01 µM (active)	0.0103 µM (active)	< 0.01 µM (active)	< 0.01 µM (active)	< 0.01 µM (active)	< 0.01 µM (active)	0.24 µM (active)	< 0.01 µM (active)	< 0.01 µM (active)	< 0.01 µM (active)	0.0465 µM (active)	< 0.01 µM (active)	< 0.01 µM (active)	< 0.01 µM (active)	< 0.01 µM (active)	21.2 µM (inactive)
COC(=O)C(Cc1ccc(Oc2cc(CC(NC(=O)c3ccccc3)C(=O)OC)ccc2OC)cc1)NC(=O)c1ccccc1 (stereo not given)	6.82 µM (inactive)	6.64 µM (inactive)	21.6 µM (inactive)	15.2 µM (inactive)	35.2 µM (inactive)	16.9 µM (inactive)	17.9 µM (inactive)	21.9 µM (inactive)	7.29 µM (inactive)	7.53 µM (inactive)	37.5 µM (inactive)	24.7 µM (inactive)	3.82 µM (inactive)	27.5 µM (inactive)	> 77.6 µM (inactive)	27 µM (inactive)	0.948 µM (active)	18.2 µM (inactive)	29.8 µM (inactive)
CCOC(=O)NC(Nc1cccc(C(F)(F)F)c1)(C(F)(F)F)C(F)(F)F	> 100 µM (inactive)	> 100 µM (inactive)	> 100 µM (inactive)	> 100 µM (inactive)	> 100 µM (inactive)	> 100 µM (inactive)	> 100 µM (inactive)	> 100 µM (inactive)	> 100 µM (inactive)	> 100 µM (inactive)	> 100 µM (inactive)	> 100 µM (inactive)	> 100 µM (inactive)	> 100 µM (inactive)	> 100 µM (inactive)	> 100 µM (inactive)	> 100 µM (inactive)	> 100 µM (inactive)	> 100 µM (inactive)
Cc1ccc(C(=O)/C=C(O)/C(O)=C/C(=O)c2ccc(C)cc2C)c(C)c1	1.84 µM (inactive)	2.1 µM (inactive)	2.9 µM (inactive)	1.86 µM (inactive)	1.92 µM (inactive)	2.36 µM (inactive)	1.79 µM (inactive)	2.34 µM (inactive)	1.64 µM (inactive)	1.8 µM (inactive)	1.88 µM (inactive)	1.76 µM (inactive)	0.0641 µM (active)	2.04 µM (inactive)	1.75 µM (inactive)	1.82 µM (inactive)	1.98 µM (inactive)	1.75 µM (inactive)	2.34 µM (inactive)
CC1(C)CCCCCC(O)C(O)CCC(C)(C)C1=O (stereo not given)	> 100 µM (inactive)	> 100 µM (inactive)	> 100 µM (inactive)	> 100 µM (inactive)	> 100 µM (inactive)	> 100 µM (inactive)	> 100 µM (inactive)	> 100 µM (inactive)	83.9 µM (inactive)	> 100 µM (inactive)	> 100 µM (inactive)	> 100 µM (inactive)	> 100 µM (inactive)	> 100 µM (inactive)	> 100 µM (inactive)	> 100 µM (inactive)	> 100 µM (inactive)	> 100 µM (inactive)	> 100 µM (inactive)
O=C(NCCc1ccccn1)c1ccc2cc(C(=O)N3CC(CCl)c4ccc([N+](=O)[O-])cc43)[nH]c2c1 (stereo not given)	36.6 µM (inactive)	> 65 µM (inactive)	9.46 µM (inactive)	10.9 µM (inactive)	26.1 µM (inactive)	> 52.4 µM (inactive)	8.99 µM (inactive)	> 33.1 µM (inactive)	9.82 µM (inactive)	20.7 µM (inactive)	> 100 µM (inactive)	5.52 µM (inactive)	> 100 µM (inactive)	> 58.9 µM (inactive)	> 35.3 µM (inactive)	> 100 µM (inactive)	> 100 µM (inactive)	> 61.5 µM (inactive)	47.4 µM (inactive)
CC(C)=CCCC(C)C1=C(O)C(=O)C(C)=CC1=O (stereo not given)	1.88 µM (inactive)	14.7 µM (inactive)	1.73 µM (inactive)	9.29 µM (inactive)	12.2 µM (inactive)	17.6 µM (inactive)	13.4 µM (inactive)	2.98 µM (inactive)	2.1 µM (inactive)	7.73 µM (inactive)	18.3 µM (inactive)	7.53 µM (inactive)	0.332 µM (active)	20.8 µM (inactive)	34 µM (inactive)	5.75 µM (inactive)	1.8 µM (inactive)	11.6 µM (inactive)	5.94 µM (inactive)

— ChEMBL document CHEMBL1201862, “PubChem BioAssay data set” (2004)
